For assay [1], the system named is Formalin induced pain in rat animal models of hyperalgesia. As to the kind of experiment: Rat Formalin Paw Test. It counts as in vivo. As to conditions: FIG. 1. Here is the method:
Rat Formalin Paw Test (in Vivo Assay): Compounds were assessed for their ability to inhibit the behavioral response evoked by an injection of formalin (50 μl of 5% formalin). A metal band was affixed to the left hind paw of male Holtzman rats (225-250 g, Harlan Industries, Indianapolis Ind.) and each rat was conditioned to the band for 60 min within a plastic cylinder (15 cm diameter). Rats were dosed with either vehicle, positive control compound or a test compound either before (local) or after (systemic) formalin challenge. For local administration, compounds were prepared in either a 1:1.5 vehicle of saline (in mL) and (D)- or (L)-Tartaric acid (in mg), or a 1:1:6 vehicle of DMA (N,N-Dimethylacetamide), Tween 80 and saline, and injected […] into the dorsal surface of the right hind paw of the rat 60 min prior to formalin. The number of flinches was counted continuously for 60 min using an automated nociception analyzer (UCSD Anesthesiology Research, San Diego, Calif.). Statistical significance was determined by comparing the total flinches detected in the early (0-10 min, Phase I) and late (11-60 min) phase with an unpaired t-test. […]

Assay [2] concerns Carrageenan-induced pain in rat animal model of hyperalgesia. Nature of the assay: Carrageenan-induced pain in rat animal model of hyperalgesia. The format is in vivo. As to conditions: FIG. 2 and FIG. 3.

For the compound `Cc1nc2ccccn2c(=O)c1CCN1CCC(C(=O)c2ccc(F)cc2)CC1` [Compound 10, 3-(2-{4-[(4-fluorophenyl)carbonyl]piperidin-1-yl}ethyl)-2-methyl-4H-pyrido[1,2-a]pyrimidin-4-one], the “reduction of Formalin induced pain” value in assay [1] is “reduction of Formalin induced pain”. Further, the “reduction of Carrageenan-induced pain” value in assay [2] is recorded as “reduction of Carrageenan-induced pain”.

The record behind these values is patent publication US9402848B2, “Method for treating pain syndrome and other disorders” (VM Therapeutics LLC, priority 2008, dated 2016).
